# Assay results reported in BindingDB's records for doi:10.1021/jm801063n (University of Auckland, 2009).
# Assay: Inhibition of recombinant perforin-mediated lysis of human Jurkat T cells by 51Cr release assay
row,IC50,SMILES
1,> 20 µM,"Cc1cc2c(c(=S)[nH]1)C(=O)O/C2=C\c1ccc[nH]1 [(Z)-1-((1H-Pyrrol-2-yl)methylene)-6-methyl-4-thioxo-4,5-dihydrofuro[3,4-c]pyridin-3(1H)-one]"
2,5.1 µM,"COc1cc2cc(/C=C3\OC(=O)c4c3cc(C)[nH]c4=S)oc2cc1OCc1ccccc1 [(Z)-1-((6-(Benzyloxy)-5-methoxybenzofuran-2-yl)methylene)-6-methyl-4-thioxo-4,5-dihydrofuro[3,4-c]pyridin-3(1H)-one]"
3,> 20 µM,"Cc1cc2c(c(=S)[nH]1)C(=O)O/C2=C\c1cc2ccccc2n1C [(Z)-6-Methyl-1-((1-methyl-1H-indol-2-yl)methylene)-4-thioxo-4,5-dihydrofuro[3,4-c]pyridin-3(1H)-one]"
4,> 20 µM,"Cc1cc2c(c(=O)[nH]1)C(=O)N/C2=C\c1ccc(C)o1 [(Z)-6-Methyl-1-((5-methylfuran-2-yl)methylene)-1H-pyrrolo[3,4-c]pyridine-3,4(2H,5H)-dione]"
5,13.1 µM,"COc1ccc2sc(/C=C3\OC(=O)c4c3cc(C)[nH]c4=S)cc2c1 [(Z)-1-((5-Methoxybenzo[b]thiophen-2-yl)methylene)-6-methyl-4-thioxo-4,5-dihydrofuro[3,4-c]pyridin-3(1H)-one]"
6,> 20 µM,"Cc1cc2c(c(=S)[nH]1)C(=O)O/C2=C\c1ccc(Cl)cc1 [(Z)-1-(4-Chlorobenzylidene)-6-methyl-4-thioxo-4,5-dihydrofuro[3,4-c]pyridin-3(1H)-one]"
7,> 20 µM,"Cc1cc2c(c(=S)[nH]1)C(=O)O/C2=C\c1cccn1C [(Z)-6-Methyl-1-((1-methyl-1H-pyrrol-2-yl)methylene)-4-thioxo-a4,5-dihydrofuro[3,4-c]pyridin-3(1H)-one]"
8,4.3 µM,"Cc1cc2c(c(=S)[nH]1)C(=O)O/C2=C\c1cn(C)c2ccccc12 [(Z)-6-Methyl-1-((1-methyl-1H-indol-3-yl)methylene)-4-thioxo-4,5-dihydrofuro[3,4-c]pyridin-3(1H)-one]"
9,> 20 µM,"Cc1cc2c(c(=S)[nH]1)C(=O)O/C2=C\c1csc(-c2ccccc2)c1 [(Z)-6-Methyl-1-((5-phenylthiophen-3-yl)methylene)-4-thioxo-4,5-dihydrofuro[3,4-c]pyridin-3(1H)-one]"
